Data from patent US11958811B1, “1-[4,5-bis(4-bromophenyl)-1-hexyl-1H-imidazol-2-yl]-2-naphthol as an antimicrobial compound” (KING FAISAL UNIVERSITY, priority 2023, dated 2024).

How the values were obtained:
Assay type in all cases: cell-based
Settings in all cases: after 10, 20, 40 and 60 minutes at all dilutions 1:100, 1:200, 1:400, 1:800
Staphylococcus aureus = test: Antimicrobial screening by agar dilution, St. Aereus
Protocol: (§1) The antimicrobial properties of the 1-[4,5-bis(4-bromophenyl)-1-hexyl-1H-imidazol-2-yl]-2-naphthol was studied by the method of agar dilution. Test solutions of each compound was prepared in concentration of 1% using dimethylformamide as a solvent then they were diluted in physiological solution to obtain the final experimental dilutions 1:100, 1:200, 1:400, 1:800. The effect of these substances was compared with furacillin in a controlled study. The testing microbes used were gram positive bacteria Staphylococcus aureus, gram negative bacteria Pseudomonas aeruginosa and Escherichia coli and Candida albicans fungi were taken. The experiments used for this survey were meat-pentonlu agar (EPA) for cultivation of bacteria and Saburo environment for fungi. Each experiment used 1 ml of test solution on each plate 500 min. Add 2 drops of emulsified with microbes feel. All experimental samples were taken from the agar after 10, 20, 40, 60 minutes in the environment on the basis of Patrk planted. Bacteria were cultivated at a temperature of 37° C. for 1 day and the mushroom was kept in a thermostat for […] at a temperature of 28° C. Then results were checked.

Escherichia coli = test: Antimicrobial screening by agar dilution, E. Coli
Protocol: as §1

Pseudomonas aeruginosa = test: Antimicrobial screening by agar dilution, Ps. Aeroqonaza
Protocol: as §1

Candida albicans = test: Antimicrobial screening by agar dilution, Candida albicans
Protocol: as §1

Measured: inhibition activity

CCCCCCn1c(-c2c(O)ccc3ccccc23)nc(-c2ccc(Br)cc2)c1-c1ccc(Br)cc1 [1-[4,5-bis(4-bromophenyl)-1-hexyl-1H-imidazol-2-yl]-2-naphthol]
highest inhibition activity: all assays above
